Test results published in patent publication US11964967B2, “Cardiac sarcomere inhibitors” (Cytokinetics, Inc., priority 2018, dated 2024).

Target: T1, bovine cardiac myofibrils (Bos taurus, UniProt Q9BE39)
T1 construct: full-length cardiac myosin in the context of the native sarcomere; from tissue; host or cells: bovine cardiac left ventricular tissue, homogenized with detergent (triton X-100)
Experiment: Skinned bovine cardiac myofibril ATPase assay (PK/LDH-coupled)
Assay type: biochemical
Settings: inhibition of steady-state ATPase activity of bovine cardiac myofibrils, calcium at 75% activation (pCa75), PM12 buffer pH 6.8; for IC50: read-out: CDMF75 IC50
Procedure: To evaluate the effect of compounds on the ATPase activity of full-length cardiac myosin in the context of the native sarcomere, skinned myofibril assays were performed. Bovine cardiac myofibrils were obtained by homogenizing bovine cardiac left ventricular tissue in the presence of a detergent such as triton X-100. Such treatment removes membranes and a majority of the soluble cytoplasmic proteins but leaves intact the cardiac sarcomeric acto-myosin apparatus. Myofibril preparations retain the ability to hydrolyze ATP in an Ca^2+ regulated manner ATPase activities of such myofibril preparations in the presence and absence of compounds were assayed at Ca^2+ concentrations activating to a defined fraction of the maximal rate (i.e., 25%, 75%). Small molecule agents were assessed for their ability to inhibit the steady-state ATPase activity of bovine cardiac myofibrils using pyruvate kinase and lactate dehydrogenase (PK/LDH)-coupled enzyme system. This assay regenerates myosin-produced ADP into ATP by oxidizing NADH, producing an absorbance change at 340 nm. Prior to testing small molecule agents, the bovine cardiac myofibrils were assessed for their calcium responsiveness and the calcium concentration that achieves either a 50% (pCa50) or 75% (pCa75) activation of the myofibril system was chosen as the final condition for assessing the inhibitory activity of the small molecule agents. All enzymatic activity was measured in a buffered solution containing 12 mM PIPES (piperazine-N,N′-bis(2-ethanesulfonic acid), 2 mM magnesium chloride at pH 6.8 (PM 12 buffer). Final assay conditions were 1 mg/mL of bovine cardiac myofibrils, 4 U/mL pyruvate kinase, 6 U/mL lactate dehydrogenase, 50 μM ATP, 0.1 mg/mL BSA (bovine serum albumin), 10 ppm antifoam, 1 mM DTT, 0.5 mM NADH, 1.5 mM PEP, 0.6 mM EGTA, and an amount of CaCl2) sufficient to achieve either 50% or 75% activation of the myofibril ATPase activity. Results for compounds tested are provided in Table A. Compounds tested were prepared in accordance with the synthetic procedures described herein.

T1 sequence (Q9BE39 whole entry): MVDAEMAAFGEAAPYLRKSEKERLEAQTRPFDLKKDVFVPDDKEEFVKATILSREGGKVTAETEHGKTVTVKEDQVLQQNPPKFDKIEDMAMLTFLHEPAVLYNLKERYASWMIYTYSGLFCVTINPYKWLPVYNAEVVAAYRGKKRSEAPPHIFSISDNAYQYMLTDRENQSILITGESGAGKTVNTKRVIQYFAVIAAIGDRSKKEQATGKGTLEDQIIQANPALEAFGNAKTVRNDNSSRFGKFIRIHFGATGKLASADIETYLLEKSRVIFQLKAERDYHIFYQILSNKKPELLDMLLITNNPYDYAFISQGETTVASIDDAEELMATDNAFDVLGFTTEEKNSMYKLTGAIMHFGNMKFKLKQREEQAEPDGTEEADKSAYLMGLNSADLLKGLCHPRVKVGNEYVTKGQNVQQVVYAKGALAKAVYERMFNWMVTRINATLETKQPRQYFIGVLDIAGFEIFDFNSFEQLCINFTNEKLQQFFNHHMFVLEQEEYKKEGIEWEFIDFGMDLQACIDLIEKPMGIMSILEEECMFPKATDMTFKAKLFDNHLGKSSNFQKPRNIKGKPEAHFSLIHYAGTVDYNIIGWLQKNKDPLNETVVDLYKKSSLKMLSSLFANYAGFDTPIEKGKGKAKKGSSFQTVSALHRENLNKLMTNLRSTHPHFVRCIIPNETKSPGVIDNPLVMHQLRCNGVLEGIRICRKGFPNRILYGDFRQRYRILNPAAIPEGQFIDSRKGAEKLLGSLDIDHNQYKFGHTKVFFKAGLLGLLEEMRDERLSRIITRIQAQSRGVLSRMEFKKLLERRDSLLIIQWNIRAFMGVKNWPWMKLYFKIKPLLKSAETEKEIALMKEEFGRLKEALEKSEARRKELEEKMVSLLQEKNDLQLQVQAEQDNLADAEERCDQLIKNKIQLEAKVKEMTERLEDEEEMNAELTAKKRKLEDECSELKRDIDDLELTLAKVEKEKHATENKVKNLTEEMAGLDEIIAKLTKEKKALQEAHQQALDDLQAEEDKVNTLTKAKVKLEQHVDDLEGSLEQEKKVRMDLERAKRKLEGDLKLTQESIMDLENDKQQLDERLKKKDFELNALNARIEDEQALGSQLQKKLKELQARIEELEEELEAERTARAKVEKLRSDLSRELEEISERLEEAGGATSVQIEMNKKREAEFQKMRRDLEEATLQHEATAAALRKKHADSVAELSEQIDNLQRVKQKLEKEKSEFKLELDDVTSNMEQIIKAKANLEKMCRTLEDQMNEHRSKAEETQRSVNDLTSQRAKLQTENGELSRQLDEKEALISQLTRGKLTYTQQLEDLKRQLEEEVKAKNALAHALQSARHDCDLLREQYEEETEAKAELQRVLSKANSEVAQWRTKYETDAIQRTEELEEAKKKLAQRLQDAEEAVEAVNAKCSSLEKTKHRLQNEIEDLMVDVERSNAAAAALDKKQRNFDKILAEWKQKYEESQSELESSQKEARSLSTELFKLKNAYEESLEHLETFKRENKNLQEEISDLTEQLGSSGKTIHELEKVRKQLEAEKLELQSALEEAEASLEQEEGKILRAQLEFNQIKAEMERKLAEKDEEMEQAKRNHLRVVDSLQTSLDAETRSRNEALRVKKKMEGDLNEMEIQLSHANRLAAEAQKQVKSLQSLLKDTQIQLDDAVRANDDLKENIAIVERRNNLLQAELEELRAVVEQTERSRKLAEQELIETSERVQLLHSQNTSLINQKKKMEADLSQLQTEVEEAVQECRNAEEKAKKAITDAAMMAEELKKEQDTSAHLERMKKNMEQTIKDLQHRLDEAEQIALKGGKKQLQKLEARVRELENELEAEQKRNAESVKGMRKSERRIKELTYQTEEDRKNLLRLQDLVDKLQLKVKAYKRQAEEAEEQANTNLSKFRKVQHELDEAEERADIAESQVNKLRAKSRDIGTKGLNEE
T1 sequence (P85100 whole entry partner): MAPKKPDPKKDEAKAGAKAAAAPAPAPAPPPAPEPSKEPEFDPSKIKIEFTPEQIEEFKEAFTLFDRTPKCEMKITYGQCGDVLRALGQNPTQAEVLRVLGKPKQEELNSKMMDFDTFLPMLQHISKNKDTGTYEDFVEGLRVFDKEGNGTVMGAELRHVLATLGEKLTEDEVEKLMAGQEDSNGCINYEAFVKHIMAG
T1 sequence (Q3SZE5 whole entry partner): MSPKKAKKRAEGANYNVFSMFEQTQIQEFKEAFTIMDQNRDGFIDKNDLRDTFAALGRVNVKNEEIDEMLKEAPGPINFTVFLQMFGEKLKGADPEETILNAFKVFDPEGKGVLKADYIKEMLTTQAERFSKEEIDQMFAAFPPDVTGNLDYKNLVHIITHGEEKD

## CCc1nc(-c2ccc3c(c2)CCC3C(=O)Nc2ccnc(C)c2)no1 (racemic) [Compound 2, 5-(5-ethyl-1,2,4-oxadiazol-3-yl)-N-(2-methylpyridin-4-yl)-2,3-dihydro-1H-indene-1-carboxamide]
  CDMF75 IC15: 1.6 µM
  IC50: 5.5 µM

## CCc1nc(-c2ccc3c(c2)CCC3C(=O)Nc2ccnn2C)no1 (racemic) [Compound 5, 5-(5-ethyl-1,2,4-oxadiazol-3-yl)-N-(1-methyl-1H-pyrazol-5-yl)-2,3-dihydro-1H-indene-1-carboxamide]
  CDMF75 IC15: >39.2 µM
  IC50: > 39.2 µM

## CCc1nc(-c2ccc3c(c2)CCC3C(=O)Nc2ccccc2)no1 (racemic) [Compound 8, 5-(5-ethyl-1,2,4-oxadiazol-3-yl)-N-phenyl-2,3-dihydro-1H-indene-1-carboxamide]
  CDMF75 IC15: 1.3 µM
  IC50: 6.1 µM

## CCNC(=O)C1CCc2cc(-c3noc(CC)n3)ccc21 (racemic) [Compound 11, N-ethyl-5-(5-ethyl-1,2,4-oxadiazol-3-yl)-2,3-dihydro-1H-indene-1-carboxamide]
  CDMF75 IC15: >39.2 µM
  IC50: > 39.2 µM

## Cc1cc(NC(=O)C2CCc3cc(-c4noc(C(F)F)n4)ccc32)ccn1 (racemic) [Compound 14, 5-(5-(difluoromethyl)-1,2,4-oxadiazol-3-yl)-N-(2-methylpyridin-4-yl)-2,3-dihydro-1H-indene-1-carboxamide]
  CDMF75 IC15: 4.4 µM
  IC50: 23.1 µM

## Cc1cc(NC(=O)C2CCc3cc(-c4noc(C)n4)ccc32)ccn1 (racemic) [Compound 17, 5-(5-methyl-1,2,4-oxadiazol-3-yl)-N-(2-methylpyridin-4-yl)-2,3-dihydro-1H-indene-1-carboxamide]
  CDMF75 IC15: 6.0 µM
  IC50: 33.4 µM

## Cc1cc(NC(=O)C2CCc3cc(-c4noc(C5CC5)n4)ccc32)ccn1 (racemic) [Compound 20, 5-(5-cyclopropyl-1,2,4-oxadiazol-3-yl)-N-(2-methylpyridin-4-yl)-2,3-dihydro-1H-indene-1-carboxamide]
  CDMF75 IC15: 2.6 µM
  IC50: 13.9 µM

## Cc1cc(NC(=O)C2CCc3cc(-c4noc(C(C)C)n4)ccc32)ccn1 (racemic) [Compound 23, 5-(5-isopropyl-1,2,4-oxadiazol-3-yl)-N-(2-methylpyridin-4-yl)-2,3-dihydro-1H-indene-1-carboxamide]
  CDMF75 IC15: 5.6 µM
  IC50: 29 µM

## CCc1nc(-c2ccc3c(c2)CCC32COC(=O)N2)no1 (racemic) [Compound 26, 5-(5-ethyl-1,2,4-oxadiazol-3-yl)-2,3-dihydrospiro[indene-1,4′-oxazolidin]-2′-one]
  CDMF75 IC15: 0.8 µM
  IC50: 3 µM

## Cc1nc(-c2ccc3c(c2)CCC32COC(=O)N2)no1 (racemic) [Compound 29, 5-(5-methyl-1,2,4-oxadiazol-3-yl)-2,3-dihydrospiro[indene-1,4′-oxazolidin]-2′-one]
  CDMF75 IC15: 4.2 µM
  IC50: 18.4 µM

## CC(C)c1nc(-c2ccc3c(c2)CCC32COC(=O)N2)no1 (racemic) [Compound 32, 5-(5-isopropyl-1,2,4-oxadiazol-3-yl)-2,3-dihydrospiro[indene-1,4′-oxazolidin]-2′-one]
  CDMF75 IC15: 2.7 µM
  IC50: 11.4 µM

## O=C1NC2(CCc3cc(-c4noc(C5CC5)n4)ccc32)CO1 (racemic) [Compound 35, 5-(5-cyclopropyl-1,2,4-oxadiazol-3-yl)-2,3-dihydrospiro[indene-1,4′-oxazolidin]-2′-one]
  CDMF75 IC15: 1.5 µM
  IC50: 5.8 µM

## O=C1NC2(CCc3cc(-c4noc(C(F)F)n4)ccc32)CO1 (racemic) [Compound 38, 5-(5-(difluoromethyl)-1,2,4-oxadiazol-3-yl)-2,3-dihydrospiro[indene-1,4′-oxazolidin]-2′-one]
  CDMF75 IC15: 2.5 µM
  IC50: 14.1 µM

## CCc1nc(-c2ccc3c(c2)OCC32COC(=O)N2)no1 (racemic) [Compound 41, 6-(5-ethyl-1,2,4-oxadiazol-3-yl)-2H-spiro[benzofuran-3,4′-oxazolidin]-2′-one]
  CDMF75 IC15: 0.6 µM
  IC50: 2.2 µM

## CCc1nc(-c2ccc3c(c2)CCC3C(=O)Nc2ccnc(C)c2)no1 (single isomer, unassigned) [Compound 2A]
  CDMF75 IC15: 0.7 µM
  IC50: 3 µM

## CCc1nc(-c2ccc3c(c2)CCC3C(=O)Nc2ccnc(C)c2)no1 (single isomer, unassigned) [Compound 2B]
  CDMF75 IC15: 17.5 µM
  IC50: > 39.2 µM

## CCc1nc(-c2ccc3c(c2)CCC3C(=O)Nc2ccnn2C)no1 (single isomer, unassigned) [Compound 5A]
  CDMF75 IC15: >39.2 µM
  IC50: > 39.2 µM

## CCc1nc(-c2ccc3c(c2)CCC3C(=O)Nc2ccnn2C)no1 (single isomer, unassigned) [Compound 5B]
  IC50: > 39.2 µM

## CCc1nc(-c2ccc3c(c2)CCC3C(=O)Nc2ccccc2)no1 (single isomer, unassigned) [Compound 8A]
  CDMF75 IC15: 0.7 µM
  IC50: 2.8 µM

## CCc1nc(-c2ccc3c(c2)CCC3C(=O)Nc2ccccc2)no1 (single isomer, unassigned) [Compound 8B]
  CDMF75 IC15: >39.2 µM
  IC50: > 39.2 µM

## CCNC(=O)C1CCc2cc(-c3noc(CC)n3)ccc21 (single isomer, unassigned) [Compound 11A]
  CDMF75 IC15: >39.2 µM
  IC50: > 39.2 µM

## CCNC(=O)C1CCc2cc(-c3noc(CC)n3)ccc21 (single isomer, unassigned) [Compound 11B]
  CDMF75 IC15: 26.3 µM
  IC50: > 39.2 µM

## Cc1cc(NC(=O)C2CCc3cc(-c4noc(C(F)F)n4)ccc32)ccn1 (single isomer, unassigned) [Compound 14A]
  CDMF75 IC15: 2.2 µM
  IC50: 11 µM

## Cc1cc(NC(=O)C2CCc3cc(-c4noc(C(F)F)n4)ccc32)ccn1 (single isomer, unassigned) [Compound 14B]
  CDMF75 IC15: >39.2 µM
  IC50: > 39.2 µM

## Cc1cc(NC(=O)C2CCc3cc(-c4noc(C)n4)ccc32)ccn1 (single isomer, unassigned) [Compound 17A]
  CDMF75 IC15: 2.9 µM
  IC50: 13.6 µM

## Cc1cc(NC(=O)C2CCc3cc(-c4noc(C)n4)ccc32)ccn1 (single isomer, unassigned) [Compound 17B]
  CDMF75 IC15: >39.2 µM
  IC50: > 39.2 µM

## Cc1cc(NC(=O)C2CCc3cc(-c4noc(C5CC5)n4)ccc32)ccn1 (single isomer, unassigned) [Compound 20A]
  CDMF75 IC15: 1.2 µM
  IC50: 5.6 µM

## Cc1cc(NC(=O)C2CCc3cc(-c4noc(C5CC5)n4)ccc32)ccn1 (single isomer, unassigned) [Compound 20B]
  CDMF75 IC15: 33.2 µM
  IC50: > 39.2 µM

## Cc1cc(NC(=O)C2CCc3cc(-c4noc(C(C)C)n4)ccc32)ccn1 (single isomer, unassigned) [Compound 23A]
  CDMF75 IC15: 3.6 µM
  IC50: 14.6 µM

## Cc1cc(NC(=O)C2CCc3cc(-c4noc(C(C)C)n4)ccc32)ccn1 (single isomer, unassigned) [Compound 23B]
  CDMF75 IC15: >39.2 µM
  IC50: > 39.2 µM

## CCc1nc(-c2ccc3c(c2)CCC32COC(=O)N2)no1 (single isomer, unassigned) [Compound 26A]
  CDMF75 IC15: 31.0 µM
  IC50: > 39.2 µM

## CCc1nc(-c2ccc3c(c2)CCC32COC(=O)N2)no1 (single isomer, unassigned) [Compound 26B]
  CDMF75 IC15: 0.3 µM
  IC50: 1.6 µM

## Cc1nc(-c2ccc3c(c2)CCC32COC(=O)N2)no1 (single isomer, unassigned) [Compound 29A]
  CDMF75 IC15: >39.2 µM
  IC50: > 39.2 µM

## Cc1nc(-c2ccc3c(c2)CCC32COC(=O)N2)no1 (single isomer, unassigned) [Compound 29B]
  CDMF75 IC15: 2.1 µM
  IC50: 9.1 µM

## CC(C)c1nc(-c2ccc3c(c2)CCC32COC(=O)N2)no1 (single isomer, unassigned) [Compound 32A]
  CDMF75 IC15: 1.5 µM
  IC50: 6.3 µM

## CC(C)c1nc(-c2ccc3c(c2)CCC32COC(=O)N2)no1 (single isomer, unassigned) [Compound 32B]
  CDMF75 IC15: >39.2 µM
  IC50: > 39.2 µM

## O=C1NC2(CCc3cc(-c4noc(C5CC5)n4)ccc32)CO1 (single isomer, unassigned) [Compound 35A]
  CDMF75 IC15: >39.2 µM
  IC50: > 39.2 µM

## O=C1NC2(CCc3cc(-c4noc(C5CC5)n4)ccc32)CO1 (single isomer, unassigned) [Compound 35B]
  CDMF75 IC15: 0.6 µM
  IC50: 3.4 µM

## O=C1NC2(CCc3cc(-c4noc(C(F)F)n4)ccc32)CO1 (single isomer, unassigned) [Compound 38A]
  CDMF75 IC15: 1.8 µM
  IC50: 7.5 µM
